In the experiment the test system is HIV. The experiment in a line: MT4 assay (anti-HIV activity). The conditions noted are these: Human immunodeficiency virus 1, 96 h, antiviral HIV activity in HTLV-1 transformed cell line MT-4; luciferase read 96 hours later; 10 point dose response. In kind it is cell-based. The gist of the method: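 MT-4 cells infected with HIV, with inhibition readout by CellTiter-Glo luminescence at 96 h relative to no-compound control. Cytotoxicity measured in parallel under the same conditions. IC50 from a 10-point, 3-4-fold dilution series spanning >1000-fold, fitted with a four-parameter logistic equation.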
Regarding `Cc1ccc(-c2c(C)c3c(c(C)c2[C@H](OC(C)(C)C)C(=O)O)CCN(C(=O)C2CCCCCC2)C3)cc1` [Example 75, (S)-2-(tert-butoxy)-2-(2-(cycloheptanecarbonyl)-5,8-dimethyl-7-(p-tolyl)-1,2,3,4-tetrahydroisoquinolin-6-yl)acetic Acid], the half-maximal inhibitory concentration (IC50) was determined as 51 nM.
To `Cc1ccc(-c2c(C)c3c(c(C)c2[C@H](OC(C)(C)C)C(=O)O)CCN(C(=O)C2(C)CCCCC2)C3)cc1` [Example 76, (S)-2-(tert-butoxy)-2-(5,8-dimethyl-2-(1-methylcyclohexanecarbonyl)-7-(p-tolyl)-1,2,3,4-tetrahydroisoquinolin-6-yl)acetic Acid] belongs 41 nM; to `Cc1ccc(-c2c(C)c3c(c(C)c2[C@H](OC(C)(C)C)C(=O)O)CCN(C2CCc4ccccc4C2)C3)cc1` (stereo partly drawn) [Example 77, (2S)-2-(tert-butoxy)-2-(5,8-dimethyl-2-(1,2,3,4-tetrahydronaphthalen-2-yl)-7-(p-tolyl)-1,2,3,4-tetrahydroisoquinolin-6-yl)acetic Acid], 40 nM.
Then `Cc1ccc(-c2c(C)c3c(c(C)c2[C@H](OC(C)(C)C)C(=O)O)CCN(C(=O)C2CCc4ccccc4C2)C3)cc1` (stereo partly drawn) [Example 78, (2S)-2-(tert-butoxy)-2-(5,8-dimethyl-2-(1,2,3,4-tetrahydronaphthalene-2-carbonyl)-7-(p-tolyl)-1,2,3,4-tetrahydroisoquinolin-6-yl)acetic Acid], with 109 nM.
Then `Cc1c(-c2c(C)c3c(c(C)c2[C@H](OC(C)(C)C)C(=O)O)CCN(C(=O)C2CCCCC2)C3)cc(F)c2c1CCCO2` [Example 79, (S)-2-(tert-Butoxy)-2-((R)-2-(cyclohexanecarbonyl)-7-(8-fluoro-5-methylchroman-6-yl)-5,8-dimethyl-1,2,3,4-tetrahydroisoquinolin-6-yl)acetic Acid], with 35 nM.
Turning to `Cc1c(-c2c(C)c3c(c(C)c2[C@H](OC(C)(C)C)C(=O)O)CCN(S(=O)(=O)C2CCCCC2)C3)cc(F)c2c1CCCO2` [Example 80, (S)-2-(tert-Butoxy)-2-((R)-2-(cyclohexylsulfonyl)-7-(8-fluoro-5-methylchroman-6-yl)-5,8-dimethyl-1,2,3,4-tetrahydroisoquinolin-6-yl)acetic Acid], the IC50 amounted to 13 nM.
Then `Cc1c(-c2c(C)c3c(c(C)c2[C@H](OC(C)(C)C)C(=O)O)CCN(C2CCC(C)(C)CC2)C3)cc(F)c2c1CCCO2` [Example 81, (S)-2-(tert-Butoxy)-2-((R)-2-(4,4-dimethylcyclohexyl)-7-(8-fluoro-5-methylchroman-6-yl)-5,8-dimethyl-1,2,3,4-tetrahydroisoquinolin-6-yl)acetic Acid], with 4 nM; and `COc1c(F)cccc1C(=O)N1CCc2c(C)c([C@H](OC(C)(C)C)C(=O)O)c(-c3cc(F)c4c(c3C)CCCO4)c(C)c2C1` [Example 82, (S)-2-(tert-Butoxy)-2-((R)-2-(3-fluoro-2-methoxybenzoyl)-7-(8-fluoro-5-methylchroman-6-yl)-5,8-dimethyl-1,2,3,4-tetrahydroisoquinolin-6-yl)acetic Acid], with 20 nM.
To `Cc1c(-c2c(C)c3c(c(C)c2[C@H](OC(C)(C)C)C(=O)O)CCN(CC2CCCCC2)C3)cc(F)c2c1CCCO2` [Example 85, (S)-2-(tert-Butoxy)-2-((R)-2-(cyclohexylmethyl)-7-(8-fluoro-5-methylchroman-6-yl)-5,8-dimethyl-1,2,3,4-tetrahydroisoquinolin-6-yl)acetic Acid] belongs 14 nM; to `Cc1c2c(c(C)c([C@H](OC(C)(C)C)C(=O)O)c1-c1ccc(Cl)cc1)CCN(S(=O)(=O)C1CCCCC1)C2` [Example 86, (S)-2-(tert-butoxy)-2-(7-(4-chlorophenyl)-2-(cyclohexylsulfonyl)-5,8-dimethyl-1,2,3,4-tetrahydroisoquinolin-6-yl)acetic Acid], 38 nM; to `Cc1c2c(c(C)c([C@H](OC(C)(C)C)C(=O)O)c1-c1ccc(Cl)cc1)CCN(C1CCCCC1)C2` [Example 87, (S)-2-(tert-butoxy)-2-(7-(4-chlorophenyl)-2-cyclohexyl-5,8-dimethyl-1,2,3,4-tetrahydroisoquinolin-6-yl)acetic Acid], 15 nM.
Then `Cc1c(-c2c(C)c3c(c(C)c2[C@H](OC(C)(C)C)C(=O)O)CCN(Cc2ccccc2)C3)cc(F)c2c1CCCO2` [Example 90, (S)-2-((R)-2-Benzyl-7-(8-fluoro-5-methylchroman-6-yl)-5,8-dimethyl-1,2,3,4-tetrahydroisoquinolin-6-yl)-2-(tert-butoxy)acetic Acid], with 67 nM; and `Cc1c(-c2c(C)c3c(c(C)c2[C@H](OC(C)(C)C)C(=O)O)CCN(C(=O)c2ccccc2)C3)cc(F)c2c1CCCO2` [Example 91, (S)-2-((R)-2-Benzoyl-7-(8-fluoro-5-methylchroman-6-yl)-5,8-dimethyl-1,2,3,4-tetrahydroisoquinolin-6-yl)-2-(tert-butoxy)acetic Acid], with 48 nM.
For `COc1ccc(C(=O)N2CCc3c(C)c([C@H](OC(C)(C)C)C(=O)O)c(-c4cc(F)c5c(c4C)CCCO5)c(C)c3C2)cc1F` [Example 92, (S)-2-(tert-Butoxy)-2-((R)-2-(3-fluoro-4-methoxybenzoyl)-7-(8-fluoro-5-methylchroman-6-yl)-5,8-dimethyl-1,2,3,4-tetrahydroisoquinolin-6-yl)acetic Acid], the IC50 came to 153 nM.
Take `Cc1c(-c2c(C)c3c(c(C)c2[C@H](OC(C)(C)C)C(=O)O)CCN(C(=O)c2cccc(OC(C)C)c2)C3)cc(F)c2c1CCCO2` [Example 93, (S)-2-(tert-Butoxy)-2-((R)-7-(8-fluoro-5-methylchroman-6-yl)-2-(3-isopropoxybenzoyl)-5,8-dimethyl-1,2,3,4-tetrahydroisoquinolin-6-yl)acetic Acid]: the IC50 is 178 nM.
To `Cc1c(-c2c(C)c3c(c(C)c2[C@H](OC(C)(C)C)C(=O)O)CCN(C(=O)c2ccc(C(F)(F)F)cc2)C3)cc(F)c2c1CCCO2` [Example 94, (S)-2-(tert-Butoxy)-2-((R)-7-(8-fluoro-5-methylchroman-6-yl)-5,8-dimethyl-2-(4-(trifluoromethyl)benzoyl)-1,2,3,4-tetrahydroisoquinolin-6-yl)acetic Acid] belongs 384 nM; to `Cc1ccc(C(=O)N2CCc3c(C)c([C@H](OC(C)(C)C)C(=O)O)c(-c4cc(F)c5c(c4C)CCCO5)c(C)c3C2)cn1` [Example 96, (S)-2-(tert-Butoxy)-2-((R)-7-(8-fluoro-5-methylchroman-6-yl)-5,8-dimethyl-2-(6-methylnicotinoyl)-1,2,3,4-tetrahydroisoquinolin-6-yl)acetic Acid], 109 nM; to `Cc1ccc(-c2c(C)c3c(c(C)c2C(OC(C)(C)C)C(=O)O)CC(=O)N(Cc2ccccc2)C3)cc1` (stereo not shown) [Example 98, 2-(2-Benzyl-5,8-dimethyl-3-oxo-7-(p-tolyl)-1,2,3,4-tetrahydroisoquinolin-6-yl)-2-(tert-butoxy)acetic Acid], 14 nM.
Then `Cc1ccc(-c2c(C)c3c(c(C)c2C(OC(C)(C)C)C(=O)O)CN(Cc2ccccc2)C(=O)C3)cc1` (stereo not shown) [Example 99, 2-(2-Benzyl-5,8-dimethyl-3-oxo-6-(p-tolyl)-1,2,3,4-tetrahydroisoquinolin-7-yl)-2-(tert-butoxy)acetic Acid], with 3300 nM; and `Cc1ccc(-c2c(C)c3c(c(C)c2[C@H](OC(C)(C)C)C(=O)O)CN(Cc2ccccc2)C(=O)C3)cc1` [Example 100, (S)-2-(2-Benzyl-5,8-dimethyl-3-oxo-6-(p-tolyl)-1,2,3,4-tetrahydroisoquinolin-7-yl)-2-(tert-butoxy)acetic Acid], with 1360 nM; and `Cc1ccc(-c2c(C)c3c(c(C)c2[C@H](OC(C)(C)C)C(=O)O)CC(=O)N(Cc2ccccc2)C3)cc1` [Example 101, (S)-2-(2-Benzyl-5,8-dimethyl-3-oxo-7-(p-tolyl)-1,2,3,4-tetrahydroisoquinolin-6-yl)-2-(tert-butoxy)acetic Acid], with 4 nM.
Then `Cc1c(-c2c(C)c3c(c(C)c2[C@H](OC(C)(C)C)C(=O)O)CC(=O)N(C2CCCC(C)(C)C2)C3)cc(F)c2c1CCCO2` (stereo partly drawn) [Example 111, (2S)-2-(tert-butoxy)-2-((7R)-2-(3,3-dimethylcyclohexyl)-7-(8-fluoro-5-methylchroman-6-yl)-5,8-dimethyl-3-oxo-1,2,3,4-tetrahydroisoquinolin-6-yl)acetic Acid], with 3 nM; and `Cc1c(-c2c(C)c3c(c(C)c2[C@H](OC(C)(C)C)C(=O)O)CC(=O)N(C2CCCCC2(C)C)C3)cc(F)c2c1CCCO2` (stereo partly drawn) [Example 116, (2S)-2-(tert-butoxy)-2-((7R)-2-(2,2-dimethylcyclohexyl)-7-(8-fluoro-5-methylchroman-6-yl)-5,8-dimethyl-3-oxo-1,2,3,4-tetrahydroisoquinolin-6-yl)acetic Acid], with 3 nM.
Take `Cc1c(-c2c(C)c3c(c(C)c2[C@H](OC(C)(C)C)C(=O)O)CC(=O)N(C2CCCC(F)(F)C2)C3)cc(F)c2c1CCCO2` (stereo partly drawn) [Example 117, (2S)-2-(tert-butoxy)-2-((7R)-2-(3,3-difluorocyclohexyl)-7-(8-fluoro-5-methylchroman-6-yl)-5,8-dimethyl-3-oxo-1,2,3,4-tetrahydroisoquinolin-6-yl)acetic Acid]: the IC50 amounted to 2 nM.
To `Cc1ccc(-c2c(C)c3c(c(C)c2C(OC(C)(C)C)C(=O)O)C(=O)N(Cc2ccccc2)CC3)cc1` (stereo not shown) [Example 121, 2-(2-benzyl-5,8-dimethyl-1-oxo-6-(p-tolyl)-1,2,3,4-tetrahydroisoquinolin-7-yl)-2-(tert-butoxy)acetic Acid] belongs 474 nM.

Broadly, the IC50 is the midpoint of a concentration-inhibition curve.
